Reference: US12150998B2, “Bicyclic peptide ligands specific for P-selectin” (BicycleTx Limited, priority 2021, dated 2024)

Tests used:
[1] = target: T1, human P-Selectin protein (Homo sapiens, UniProt P16109); assay: SPR binding assay (Biacore); details: Affinity KD determined by SPR, recombinant biotinylated human P-Selectin, 25° C.
T1 sequence (P16109 42-830): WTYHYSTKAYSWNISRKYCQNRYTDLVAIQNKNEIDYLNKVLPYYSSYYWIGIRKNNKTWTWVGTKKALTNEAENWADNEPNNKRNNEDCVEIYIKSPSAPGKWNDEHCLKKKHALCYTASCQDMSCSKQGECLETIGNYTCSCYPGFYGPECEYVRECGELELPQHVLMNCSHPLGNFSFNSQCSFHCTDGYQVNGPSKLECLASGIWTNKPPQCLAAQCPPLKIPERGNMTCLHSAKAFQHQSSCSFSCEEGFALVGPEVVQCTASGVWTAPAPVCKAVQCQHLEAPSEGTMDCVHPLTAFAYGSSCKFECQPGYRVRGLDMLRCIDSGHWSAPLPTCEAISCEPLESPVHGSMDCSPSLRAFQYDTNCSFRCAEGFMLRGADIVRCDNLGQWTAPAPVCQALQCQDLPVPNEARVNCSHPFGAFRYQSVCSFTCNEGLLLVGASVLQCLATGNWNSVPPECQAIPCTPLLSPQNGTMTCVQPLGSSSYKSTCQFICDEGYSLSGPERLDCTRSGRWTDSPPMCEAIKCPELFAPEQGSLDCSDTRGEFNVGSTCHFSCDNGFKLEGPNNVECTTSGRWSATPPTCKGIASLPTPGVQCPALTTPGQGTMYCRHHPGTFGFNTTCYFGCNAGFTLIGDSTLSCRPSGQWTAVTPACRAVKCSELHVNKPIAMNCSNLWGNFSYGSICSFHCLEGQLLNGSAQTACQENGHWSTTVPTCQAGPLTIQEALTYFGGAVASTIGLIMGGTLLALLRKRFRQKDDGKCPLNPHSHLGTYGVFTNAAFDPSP
In short: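 Biotinylated recombinant human P-Selectin was captured on a streptavidin chip (1000-1500 RU), and monomeric peptides were injected in PBS/0.05% Tween 20 with 0.5% DMSO at 25 °C (top 200 nM–50 μM, 2- or 3-fold series). Double-referenced data were fitted to a kinetic model with mass transport to give ka, kd and KD.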

[2] = target: T2, P-Selectin:PSGL1 interaction (Homo sapiens, UniProt P16109); assay: Receptor ligand inhibition assay (P-Selectin binding to HL-60 cells); format: cell-based
T2 construct: host or cells: HL-60 cells (ATCC, CCL-240) supply the PSGL-1 partner endogenously
T2 sequence (P16109 42-771 limits assumed): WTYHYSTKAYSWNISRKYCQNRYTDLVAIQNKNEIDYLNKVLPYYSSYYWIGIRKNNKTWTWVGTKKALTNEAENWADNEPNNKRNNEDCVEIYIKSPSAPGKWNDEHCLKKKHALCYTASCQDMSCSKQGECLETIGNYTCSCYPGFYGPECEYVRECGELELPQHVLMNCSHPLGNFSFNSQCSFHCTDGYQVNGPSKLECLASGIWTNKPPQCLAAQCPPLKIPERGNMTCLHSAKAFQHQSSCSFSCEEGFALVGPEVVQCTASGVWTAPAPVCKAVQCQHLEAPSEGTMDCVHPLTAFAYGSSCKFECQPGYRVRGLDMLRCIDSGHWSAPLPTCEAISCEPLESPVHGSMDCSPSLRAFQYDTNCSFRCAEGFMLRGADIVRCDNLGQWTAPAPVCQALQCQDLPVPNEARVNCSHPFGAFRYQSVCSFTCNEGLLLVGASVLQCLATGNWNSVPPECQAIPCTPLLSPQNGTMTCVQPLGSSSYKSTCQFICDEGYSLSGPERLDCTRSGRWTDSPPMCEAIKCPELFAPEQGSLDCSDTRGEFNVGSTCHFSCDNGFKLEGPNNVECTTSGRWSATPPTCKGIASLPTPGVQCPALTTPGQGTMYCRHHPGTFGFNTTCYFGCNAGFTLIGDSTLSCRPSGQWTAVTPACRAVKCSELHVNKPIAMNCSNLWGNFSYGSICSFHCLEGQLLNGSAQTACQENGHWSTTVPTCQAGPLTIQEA
Procedure: Bicycle test samples, SelG1 (Crizanlizumab) were serially diluted maintaining 0.5% DMSO in assay buffer (25 mM HEPES, 121 mM NaCl, 5.4 mM KCl, 0.8 mM MgCl2, 1.8 mM CaCl2), 6 mM […], 5.5 mM glucose, 1% BSA, pH7.4) and transferred to 384 well clear bottom plates (Corning, 3712) with a final volume of 6 μL. […], of P-Selectin in imaging buffer (25 mM HEPES, 121 mM NaCl, 5.4 mM KCl, 0.8 mM MgCl2, 1.8 mM CaCl2), 6 mM […], 5.5 mM glucose, pH7.4) was added to give a 5 nM final concentration and incubated at room temperature for 15 minutes. HL-60 cells (ATCC, CCL-240) mixed with 1 μg/mL far red labelled wheat germ agglutinin (WGA, ThermoFisher W21404) and 1 μg/mL AlexaFluor 488-streptavidin (Invitrogen S11223) were added to the plate and incubated for 2 hours at room temperature in the absence of light. Staining and antibody binding were quantified by simultaneously scanning the microplates with 488 nm and 640 nm lasers on a mirrorball microplate cytometer, AF488 on FL2 triggering on AF647-WGA on FL4. Data was analysed in Dotmatics, using a four parameter logistic fit to generate IC50 values and % response. Percent inhibition was calculated using 100−% response at top concentration.

For `CC(C)C[C@@H]1NC(=O)[C@H](CO)NC(=O)[C@@H]2CCCN2C(=O)[C@H](C(C)C)NC(=O)[C@H](CC(=O)O)NC(=O)[C@@H]2CSCC(=O)N3CCN(CCN(CC3)C(=O)CSC[C@@H](C(=O)N[C@@H](C)C(=O)N[C@@H](CCCCNC(=O)CCc3cn(CCOCCOCCOCCOCCOCCOCCOCCOCCOCCOCCOCCOCCOCCOCCOCCOCCOCCOCCOCCOCCOCCOCCOCCNC(=O)CCOCC(COCCC(=O)NCCOCCOCCOCCOCCOCCOCCOCCOCCOCCOCCOCCOCCOCCOCCOCCOCCOCCOCCOCCOCCOCCOCCOCCn4cc(CCC(=O)NCCCC[C@H](NC(=O)[C@H](C)NC(=O)[C@@H]5CSCC(=O)N6CCN7CCN(CC6)C(=O)CSC[C@H](NC(=O)[C@H](Cc6c[nH]c8ccccc68)NC(=O)[C@H](CC(=O)O)NC(=O)[C@H](C)NC(=O)[C@H](CC(=O)O)NC(=O)[C@@H](NC(=O)[C@H](C)N)CSCC7=O)C(=O)N[C@@H](CC(=O)O)C(=O)N[C@@H](C(C)C)C(=O)N6CCC[C@H]6C(=O)N[C@@H](CO)C(=O)N[C@@H](CC(C)C)C(=O)N6CCC[C@H]6C(=O)N5)C(N)=O)nn4)(COCCC(=O)NCCOCCOCCOCCOCCOCCOCCOCCOCCOCCOCCOCCOCCOCCOCCOCCOCCOCCOCCOCCOCCOCCOCCOCCn4cc(CCC(=O)NCCCC[C@H](NC(=O)[C@H](C)NC(=O)[C@@H]5CSCC(=O)N6CCN7CCN(CC6)C(=O)CSC[C@H](NC(=O)[C@H](Cc6c[nH]c8ccccc68)NC(=O)[C@H](CC(=O)O)NC(=O)[C@H](C)NC(=O)[C@H](CC(=O)O)NC(=O)[C@@H](NC(=O)[C@H](C)N)CSCC7=O)C(=O)N[C@@H](CC(=O)O)C(=O)N[C@@H](C(C)C)C(=O)N6CCC[C@H]6C(=O)N[C@@H](CO)C(=O)N[C@@H](CC(C)C)C(=O)N6CCC[C@H]6C(=O)N5)C(N)=O)nn4)COCCC(=O)NCCOCCOCCOCCOCCOCCOCCOCCOCCOCCOCCOCCOCCOCCOCCOCCOCCOCCOCCOCCOCCOCCOCCOCCn4cc(CCC(=O)NCCCC[C@H](NC(=O)[C@H](C)NC(=O)[C@@H]5CSCC(=O)N6CCN7CCN(CC6)C(=O)CSC[C@H](NC(=O)[C@H](Cc6c[nH]c8ccccc68)NC(=O)[C@H](CC(=O)O)NC(=O)[C@H](C)NC(=O)[C@H](CC(=O)O)NC(=O)[C@@H](NC(=O)[C@H](C)N)CSCC7=O)C(=O)N[C@@H](CC(=O)O)C(=O)N[C@@H](C(C)C)C(=O)N6CCC[C@H]6C(=O)N[C@@H](CO)C(=O)N[C@@H](CC(C)C)C(=O)N6CCC[C@H]6C(=O)N5)C(N)=O)nn4)nn3)C(N)=O)NC(=O)[C@@H]3CCCN3C1=O)C(=O)CSC[C@H](NC(=O)[C@H](C)N)C(=O)N[C@@H](CC(=O)O)C(=O)N[C@@H](C)C(=O)N[C@@H](CC(=O)O)C(=O)N[C@@H](Cc1c[nH]c3ccccc13)C(=O)N2` [BCY12261], the Kd [1] was 0.019 nM, the IC50 [2] was 10.4 nM and the “Inhibition at top concentration” value ([2]; 100−% response at top concentration, geomean of n=3) was 68%.
